Measured values published in patent publication US20250288587A1, “Methods of Treating Fibrosis” (Athira Pharma, Inc., priority 2022, published 2025).

Tests used:
CFA-stimulated rats [1] = test: CFA inflammatory pain model, thermal hyperalgesia (Hargreaves method); type: in vivo; design: key to Thermal Hyperalgesia, change in sensitivity compared to CFA alone / Thermal Hyperalgesia, significant reduction in pain behavior vs CFA alone: NS = no statistically significant change in sensitivity compared to CFA alone; + = statistically significant change in sensitivity compared to CFA alone, p < 0.05
Experimental: (§1) Response to peripheral inflammatory stimulus can be modeled by administering complete Freund's adjuvant (CFA), a suspension of desiccated mycobacterium in paraffin oil and mannide monooleate, by subcutaneous injection into the rat's footpad. The introduction of CFA to peripheral tissues leads to a rapid, sustained, inflammatory reaction in the treated tissue within 24 hours. Subcutaneous administration of CFA in the plantar region of the paw induces inflammatory pain behaviors that persist for at least 8 days. CFA treatment also leads to the accumulation of inflammatory cytokines in paw tissue at the site of injury, which, if unresolved, can lead to formation of fibrotic tissue. The extent of inflammatory response to CFA can be assessed by quantification of inflammatory cytokines in paw skin lysate, and inflammatory pain behaviors by mechanical allodynia (von Frey test) and thermal hyperalgesia (Hargreaves test).
In one study, Compound 2a was tested for its ability to reduce inflammatory pain behaviors in the CFA inflammation model. On study day 0, […] of CFA was administered subcutaneously in the plantar of the right hind paw. Animals were treated daily with Compound 2a in solution via oral gavage (PO) at doses of 1, 0.1, and 0.025 mg/kg. Treatment began before CFA injection on study day −1 and continued through study day 8.
Thermal hyperalgesia was measured using the Hargreaves method. A temperature ramp was applied to the right hind paw and the paw withdrawal latency (PWL) was recorded as a measure of sensitivity to thermal stimulation. […] Statistical analysis was performed using a 1-way ANOVA with Tukey post-test. A p-value below 0.05 was considered statistically significant.
(§2) In another study, Compounds 1a, 5a, and 6a were similarly tested against CFA-induced inflammatory stimulation in the right hind foot for their ability to reduce pain behaviors. This study also included quantification of inflammatory cytokine expression in paw skin lysate. Inflammatory pain stimulation with CFA injection and assessment of mechanical and thermal pain behaviors were performed as described above, with the exception that only post-dose pain behavior testing is reported.
(§3) Intraplantar CFA injection occurred at day 0. Treatment with Compounds 1a, 5a, and 6a occurred at days −2, 1, 3, and 7. At day 8, the rats were terminated and cytokine levels were measured in paw skin and plasma. Tissue from paw bone, joint, and muscle were obtained for H&E staining and analysis. Cytokine levels in test compound-treated animals were compared to CFA-stimulated animals. Analytes included interleukin 4 (IL-4), tumor necrosis factor alpha (TNF-α) and interferon gamma (IFN-γ). Statistical analysis consisted of 1-way ANOVA followed by Dunnett's multiple comparisons post-test. Mechanical allodynia and thermal hyperalgesia were tested 1 hour post-dosing on days 1, 3, and 7. PWT refers to […] paw withdrawal threshold where a higher value corresponds to a higher pain threshold. PWL refers to […] paw withdrawal latency where a higher value corresponds to a higher pain threshold.

[2] = system: pulmonary LPS-stimulated rats; test: Cytokine expression in BALF supernatant (multiplex immunoassay), LPS-induced acute pulmonary inflammation; type: in vivo
CFA-stimulated rats [3] = test: CFA inflammatory pain model, cytokine expression in paw skin; type: in vivo; design: key to IFN-γ expression in paw skin, change compared to CFA alone / IL-4 expression in paw skin, change compared to CFA alone / TNF-α expression in paw skin, change compared to CFA alone: NS = no statistically significant change in expression compared to CFA alone; + = statistically significant change in expression compared to CFA alone, p < 0.05; conditions: day 8
Experimental: as §1, §2, §3

[4] = system: THP-1-differentiated macrophages; test: Pro-inflammatory cytokine expression in LPS-challenged THP-1-differentiated macrophages; type: cell-based, human; design: key to IL-6, significant reduction in culture supernatant vs LPS treatment / TNF-α, significant reduction in culture supernatant vs LPS treatment / IL-1β, significant reduction in culture supernatant vs LPS treatment: “NS” indicates a non-significant reduction in the indicated cytokine; “+” indicates a p value <0.05 in Tukey post test; “++” indicates a p value <0.01 in Tukey post test; conditions: for IL-1β, significant reduction in culture supernatant vs LPS treatment / IL-6, significant reduction in culture supernatant vs LPS treatment / TNF-α, significant reduction in culture supernatant vs LPS treatment: 20 min pre-treatment, 24 hrs LPS
Experimental: Differentiation with PMA causes THP-1 monocyte cells to acquire functional and morphological resemblance to macrophages. LPS interacts with THP-1 differentiated macrophage through the toll-like receptor 4, triggering the inflammatory response and stimulating pro-inflammatory cytokine release and eventually leading to cellular death. Compounds were tested to determine their anti-inflammatory effects on LPS-challenged macrophage cultures. THP-1-differentiated macrophages were treated with test compounds for 20 minutes, followed by 24 hrs of LPS challenge. Culture supernatants were then collected to analyzed for the presence of pro-inflammatory cytokines: […], interleukin 6 (IL-6) and tumor necrosis factor α (TNF-α).
Cytokine quantification in cell culture supernatants was accomplished by HTRF kits to assess levels of IL-1β (Human IL-1β kit, #62HIL1BPEG, Cisbio) and IL-6 (Human IL-6 kit, 62HIL06PET, Cisbio), and by ELISA to determine the levels of TNF-α (Human TNF-α ELISA kit, KHC3011, ThermoFisher).
Data analysis was performed via 1-way ANOVA with Tukey post-test compared to LPS treatment cultures using Prism statistical software (GraphPad). Tabular data indicates significance of reduction in culture supernatants for the indicated analyte at the indicated doses.

[5] = 0.075 mg/kg IV, 24 h and 0.5 h before LPS
[6] = 0.75 mg/kg IV, 24 h and 0.5 h before LPS

CCC(C)CN1CC2N(C(=O)c3ccc(C(F)(F)F)cc3)CCC(=O)N2[C@@H](C)C1=O (some centres unmarked) [Compound 1a]
Thermal Hyperalgesia, significant reduction in pain behavior vs CFA alone (CFA-stimulated rats [1]; 8 mg/kg PO, Day 1, 1 h post-dose): NS
Thermal Hyperalgesia, significant reduction in pain behavior vs CFA alone (CFA-stimulated rats [1]; 8 mg/kg PO, Day 3, 1 h post-dose): NS
Thermal Hyperalgesia, significant reduction in pain behavior vs CFA alone (CFA-stimulated rats [1]; 8 mg/kg PO, Day 7, 1 h post-dose): + (+ = statistically significant change in sensitivity compared to CFA alone, p < 0.05)
Thermal Hyperalgesia, significant reduction in pain behavior vs CFA alone (CFA-stimulated rats [1]; 16 mg/kg PO, Day 1, 1 h post-dose): + (+ = statistically significant change in sensitivity compared to CFA alone, p < 0.05)
Thermal Hyperalgesia, significant reduction in pain behavior vs CFA alone (CFA-stimulated rats [1]; 16 mg/kg PO, Day 3, 1 h post-dose): + (+ = statistically significant change in sensitivity compared to CFA alone, p < 0.05)
Thermal Hyperalgesia, significant reduction in pain behavior vs CFA alone (CFA-stimulated rats [1]; 16 mg/kg PO, Day 7, 1 h post-dose): + (+ = statistically significant change in sensitivity compared to CFA alone, p < 0.05)
study days on which thermal sensitivity was reduced (CFA-stimulated rats [1]; PO, post-dose testing, any tested dose): study days 1, 3, and 7
PWL (paw withdrawal latency) vs CFA+vehicle (CFA-stimulated rats [1]; day 7 at each dose, data not shown): statistically significant increase
CXCL10, significant change in cytokine expression in BALF supernatant [2, 5]: + (+ = Significant change in cytokine quantification, p < 0.05 by Student's T-test)
IFN-γ, significant change in cytokine expression in BALF supernatant [2, 5]: + (+ = Significant change in cytokine quantification, p < 0.05 by Student's T-test)
CXCL2, significant change in cytokine expression in BALF supernatant [2, 6]: + (+ = Significant change in cytokine quantification, p < 0.05 by Student's T-test)
CXCL10, significant change in cytokine expression in BALF supernatant [2, 6]: + (+ = Significant change in cytokine quantification, p < 0.05 by Student's T-test)
G-CSF, significant change in cytokine expression in BALF supernatant [2, 6]: + (+ = Significant change in cytokine quantification, p < 0.05 by Student's T-test)
IL-1β, significant change in cytokine expression in BALF supernatant [2, 6]: + (+ = Significant change in cytokine quantification, p < 0.05 by Student's T-test)
cytokines with significant changes in expression in BALF supernatant versus LPS-only animals ([2]; p<0.05, Student's T-test, any tested dose): G-CSF, CXCL2, CXCL10, IFN-γ, and IL-1β
IFN-γ expression in paw skin, change compared to CFA alone (CFA-stimulated rats [3]; 8 mg/kg PO): + (+ = statistically significant change in expression compared to CFA alone, p < 0.05)
IL-4 expression in paw skin, change compared to CFA alone (CFA-stimulated rats [3]; 8 mg/kg PO): + (+ = statistically significant change in expression compared to CFA alone, p < 0.05)
TNF-α expression in paw skin, change compared to CFA alone (CFA-stimulated rats [3]; 8 mg/kg PO): + (+ = statistically significant change in expression compared to CFA alone, p < 0.05)
IFN-γ expression in paw skin, change compared to CFA alone (CFA-stimulated rats [3]; 16 mg/kg PO): NS
IL-4 expression in paw skin, change compared to CFA alone (CFA-stimulated rats [3]; 16 mg/kg PO): + (+ = statistically significant change in expression compared to CFA alone, p < 0.05)
TNF-α expression in paw skin, change compared to CFA alone (CFA-stimulated rats [3]; 16 mg/kg PO): + (+ = statistically significant change in expression compared to CFA alone, p < 0.05)
IL-1β, significant reduction in culture supernatant vs LPS treatment ([4]; 0.1 nM): ++ (“++” indicates a p value <0.01 in Tukey post test)
IL-6, significant reduction in culture supernatant vs LPS treatment ([4]; 0.1 nM): NS
TNF-α, significant reduction in culture supernatant vs LPS treatment ([4]; 0.1 nM): ++ (“++” indicates a p value <0.01 in Tukey post test)
IL-1β, significant reduction in culture supernatant vs LPS treatment ([4]; 10 nM): ++ (“++” indicates a p value <0.01 in Tukey post test)
IL-6, significant reduction in culture supernatant vs LPS treatment ([4]; 10 nM): ++ (“++” indicates a p value <0.01 in Tukey post test)
TNF-α, significant reduction in culture supernatant vs LPS treatment ([4]; 10 nM): ++ (“++” indicates a p value <0.01 in Tukey post test)
IL-1β, significant reduction in culture supernatant vs LPS treatment ([4]; 1000 nM): ++ (“++” indicates a p value <0.01 in Tukey post test)
IL-6, significant reduction in culture supernatant vs LPS treatment ([4]; 1000 nM): + (“+” indicates a p value <0.05 in Tukey post test)
TNF-α, significant reduction in culture supernatant vs LPS treatment ([4]; 1000 nM): ++ (“++” indicates a p value <0.01 in Tukey post test)
expression of IL-1β and TNF-α ([4]; at at least one tested dose): significantly reduced
expression of IL-6 ([4]; at at least one tested dose): significantly reduced
